Laboratory results taken from patent publication US12576051B2, “Methods and composition for treating respiratory obstructive diseases” (The Regents of the University of California, priority 2019, dated 2026).
“Also recorded” adds a separate entry of the source.

Key:
[1] = tested on: respiratory secreted mucus; assay: Mucolytic activity on respiratory secreted mucus of open porcine trachea sections (alcian blue); settings: 2 mM, HCO3-Ringer with PGE2 (1 uM) and alcian blue (0.02%), 10 minutes at 37° C.; untreated showed clusters of secreted mucus; hydrochloride
Experimental: FIG. 16 provides the mucolytic activity of compounds 646 and 647 on respiratory secreted mucus. Small sections of open porcine trachea (˜2 cm^2) were covered with HCO3-Ringer solution ([…]) containing PGE2 (1 uM) and alcian blue (0.02%), with or without compounds at a 2 mM final concentration, and then incubated for 10 minutes at 37° C.
FIG. 17 provides the mucolytic activity of compounds 655 and 656 on respiratory secreted mucus. Small sections of open porcine trachea (˜2 cm^2) were covered with HCO3-Ringer solution ([…]) containing PGE2 (1 uM) and alcian blue (0.02%), with or without compounds at a 2 mM final concentration, and then incubated for 10 minutes at 37° C.

[2] = tested on: porcine airway mucus; assay: Mucolytic activity on porcine airway mucin (electrophoresis, Coomassie stain); assay type: biochemical; settings: for protein bands at 600 and 200 kDa of airway mucus: NaHCO3-Ringer, 60 minutes at 37° C., hydrochloride
Experimental: FIG. 9 presents the effect of compound 646 on porcine airway mucus. Mucus collected from porcine upper airways diluted in NaHCO3-Ringer, was treated with different concentrations of compound 646 (0, 0.25. 0.5 and 1 mM), for 60 minutes at 37° C. In lane 1, representative protein pattern after electrophoresis protein separation of untreated porcine airway mucus (40 μg/well).
Airway mucus supernatant diluted in NaHCO3-Ringer was treated with or without cysteamine bitartrate under basic and acidic conditions at 37° C. for 60 minutes.
Biological specimens: Isolated native porcine airways were used as experimental model. Sections of open trachea tissue (approx. 2 cm^2) were carefully rinsed and cover small volume of NaHCO3-Ringer solution. Mucus secretion was stimulated with Prostaglandin E2 (PGE2, 10−6 M). Secreted mucus over the dissected open airways was carefully collected, aliquoted and immediately frozen at −80° C.
Mucolytic activity on porcine airway mucin: One hundred microliters of collected porcine airway supernatant was incubated with Cysteamine bitartrate or compound 646 at final concentrations from 0 to 2 mM as indicated in the text. Mucolytic activity was ended with 30 microliters of SDS-sample buffer solution. 45 microliters of each sample/well were separated in an electrophoresis gel 4-12% Tris-Glycine. After electrophoresis gels were stained with Coomassie Blue solution.
Mucolytic activity of synthetic compound 646. Respiratory airway mucus contained Muc5aC and Muc5B mucins. In order to determine whether compound 646 be used as a mucolytic agent for respiratory airways, supernatant of mucus collected from porcine airways was treated with compound 646 at different concentration (0-1 mM) for 1 h at 37° C.
Mucolytic activity of cysteamine bitartrate under basic and acidic conditions. To validate whether mucolytic activity of cysteamine bitartrate depends on changes of pH, airway mucus supernatant was incubated for 1 h at 37° C. with or without 2 mM cysteamine bitartrate diluted in NaHCO3. An additional airway mucus sample was treated with cysteamine bitartrate and supplemented with 4 μL of 0.1 N of acetic solution pH 4.5. […] The reduction, however, was approximately half of the decrease seen under acidic conditions.

## 2-aminoethane-1-d-1-thiol hydrochloride [Compound 646]
[1]
  appearance of secreted mucus on trachea sections: dispersed clusters of secreted mucus
[2]; 0.5 mM
  protein bands at 600 and 200 kDa of airway mucus: two major changes in the proteins at the level of 600 and 200 kDa; also recorded: major changes on two protein bands
[2]; 1 mM
  protein bands at 600 and 200 kDa of airway mucus: two major changes in the proteins at the level of 600 and 200 kDa; also recorded: major changes on two protein bands
[2]; mucus collected from porcine airways, summary of FIG. 9
  mucolytic effect on airway mucus: mucolytic effect, similar to cysteamine
